According to PubChem BioAssay (NCI):
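How tested: cells in 96-well plates exposed to compound for 48 hours at five concentrations. GI50 is the concentration that inhibits growth by half. TGI: total growth inhibition.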

Columns and labels:
Test in all cases: NCI anticancer screen, dose series, 48 h
OVCAR-3 ovarian = tested on: OVCAR-3 ovarian
SF-295 CNS = tested on: SF-295 CNS
786-0 renal = tested on: 786-0 renal
NCI-H23 lung = tested on: NCI-H23 lung
CCRF-CEM leukemia = tested on: CCRF-CEM leukemia
SK-OV-3 ovarian = tested on: SK-OV-3 ovarian
SF-539 CNS = tested on: SF-539 CNS
UO-31 renal = tested on: UO-31 renal
OVCAR-4 ovarian = tested on: OVCAR-4 ovarian
HOP-92 NSCLC = tested on: HOP-92 NSCLC
COLO 205 colon = tested on: COLO 205 colon
HS 578T breast = tested on: HS 578T breast
OVCAR-5 ovarian = tested on: OVCAR-5 ovarian
SNB-75 CNS = tested on: SNB-75 CNS
SK-MEL-2 melanoma = tested on: SK-MEL-2 melanoma
T-47D breast = tested on: T-47D breast
NCI-H226 lung = tested on: NCI-H226 lung
M14 melanoma = tested on: M14 melanoma
SNB-19 CNS = tested on: SNB-19 CNS
ACHN renal = tested on: ACHN renal
SN12C renal = tested on: SN12C renal
SR leukemia = tested on: SR leukemia
SK-MEL-5 melanoma = tested on: SK-MEL-5 melanoma
TK-10 renal = tested on: TK-10 renal
RXF 393 renal = tested on: RXF 393 renal
NCI-H522 lung = tested on: NCI-H522 lung
MCF7 breast = tested on: MCF7 breast
MALME-3M melanoma = tested on: MALME-3M melanoma
LOX IMVI melanoma = tested on: LOX IMVI melanoma
HCT-116 colon = tested on: HCT-116 colon
MDA-MB-435 = tested on: MDA-MB-435
HCC-2998 colon = tested on: HCC-2998 colon
K-562 leukemia = tested on: K-562 leukemia
MOLT-4 leukemia = tested on: MOLT-4 leukemia
BT-549 breast = tested on: BT-549 breast
HOP-62 NSCLC = tested on: HOP-62 NSCLC
U251 CNS = tested on: U251 CNS
SK-MEL-28 melanoma = tested on: SK-MEL-28 melanoma
SF-268 CNS = tested on: SF-268 CNS
SW-620 colon = tested on: SW-620 colon
HCT-15 colon = tested on: HCT-15 colon
UACC-62 melanoma = tested on: UACC-62 melanoma
RPMI-8226 leukemia = tested on: RPMI-8226 leukemia
NCI/ADR-RES ovarian = tested on: NCI/ADR-RES ovarian
DU-145 prostate = tested on: DU-145 prostate
A549 NSCLC = tested on: A549 NSCLC
KM12 colon = tested on: KM12 colon
OVCAR-8 ovarian = tested on: OVCAR-8 ovarian
HL-60(TB) leukemia = tested on: HL-60(TB) leukemia
MDA-MB-231 breast = tested on: MDA-MB-231 breast
IGROV1 ovarian = tested on: IGROV1 ovarian
HT29 colon = tested on: HT29 colon
EKVX NSCLC = tested on: EKVX NSCLC
UACC-257 melanoma = tested on: UACC-257 melanoma
PC-3 prostate = tested on: PC-3 prostate

## Nc1nc2cc(-c3ccc4ncc(C(=O)N5CCOCC5)n4c3)ccc2o1
OVCAR-3 ovarian
  GI50: 13.9 µM
  TGI: > 100 µM
SF-295 CNS
  GI50: 5.53 µM
  TGI: 64.8 µM
786-0 renal
  GI50: 14.6 µM
  TGI: > 100 µM
NCI-H23 lung
  GI50: 6.58 µM
  TGI: > 100 µM
CCRF-CEM leukemia
  GI50: 8.74 µM
  TGI: > 100 µM
SK-OV-3 ovarian
  GI50: 1.59 µM
  TGI: 7.16 µM
SF-539 CNS
  GI50: 9.81 µM
  TGI: 73.3 µM
UO-31 renal
  GI50: 2.09 µM
  TGI: 35.6 µM
OVCAR-4 ovarian
  GI50: 6.07 µM
  TGI: > 100 µM
HOP-92 NSCLC
  GI50: 1.35 µM
  TGI: 9.53 µM
COLO 205 colon
  GI50: 3.44 µM
  TGI: > 100 µM
HS 578T breast
  GI50: 3.36 µM
  TGI: 30 µM
OVCAR-5 ovarian
  GI50: 2.74 µM
  TGI: > 100 µM
SNB-75 CNS
  GI50: 0.916 µM
  TGI: 15.7 µM
SK-MEL-2 melanoma
  GI50: 5.33 µM
  TGI: 46.8 µM
T-47D breast
  GI50: 0.417 µM
  TGI: 3.52 µM
NCI-H226 lung
  GI50: 5.2 µM
  TGI: > 100 µM
M14 melanoma
  GI50: 4.64 µM
  TGI: > 100 µM
SNB-19 CNS
  GI50: 15.4 µM
  TGI: 84.5 µM
ACHN renal
  GI50: 4.28 µM
  TGI: > 100 µM
SN12C renal
  GI50: 6.66 µM
  TGI: > 100 µM
SR leukemia
  GI50: 2.85 µM
  TGI: > 100 µM
SK-MEL-5 melanoma
  GI50: 3.95 µM
  TGI: 50.7 µM
TK-10 renal
  GI50: 2.41 µM
  TGI: 27.5 µM
RXF 393 renal
  GI50: 5.51 µM
  TGI: 36.7 µM
NCI-H522 lung
  GI50: 7.13 µM
  TGI: 88.5 µM
MCF7 breast
  GI50: 1.39 µM
  TGI: > 100 µM
MALME-3M melanoma
  GI50: 1.23 µM
  TGI: 7.15 µM
LOX IMVI melanoma
  GI50: 4.74 µM
  TGI: > 100 µM
HCT-116 colon
  GI50: 4.4 µM
  TGI: > 100 µM
MDA-MB-435
  GI50: 5.71 µM
  TGI: > 100 µM
HCC-2998 colon
  GI50: 10 µM
  TGI: > 100 µM
K-562 leukemia
  GI50: 47 µM
  TGI: > 100 µM
MOLT-4 leukemia
  GI50: 4.15 µM
  TGI: 74.9 µM
BT-549 breast
  GI50: 4.39 µM
  TGI: 37.9 µM
HOP-62 NSCLC
  GI50: 4.23 µM
  TGI: 49.3 µM
U251 CNS
  GI50: 11.1 µM
  TGI: 80.3 µM
SK-MEL-28 melanoma
  GI50: 5.4 µM
  TGI: > 100 µM
SF-268 CNS
  GI50: 9.82 µM
  TGI: > 100 µM
SW-620 colon
  GI50: 10.8 µM
  TGI: > 100 µM
HCT-15 colon
  GI50: 5.4 µM
  TGI: > 100 µM
UACC-62 melanoma
  GI50: 4.14 µM
  TGI: > 100 µM
RPMI-8226 leukemia
  GI50: 6.36 µM
  TGI: > 100 µM
NCI/ADR-RES ovarian
  GI50: 44.6 µM
  TGI: > 100 µM
DU-145 prostate
  GI50: 9.09 µM
  TGI: > 100 µM
A549 NSCLC
  GI50: 4.86 µM
  TGI: > 100 µM
KM12 colon
  GI50: 14.4 µM
  TGI: > 100 µM
OVCAR-8 ovarian
  GI50: 13.4 µM
  TGI: > 100 µM
HL-60(TB) leukemia
  GI50: 2.95 µM
  TGI: 60.9 µM
MDA-MB-231 breast
  GI50: 4.89 µM
  TGI: 67.9 µM
IGROV1 ovarian
  GI50: 1.74 µM
  TGI: 6.6 µM
HT29 colon
  GI50: 3.52 µM
  TGI: > 100 µM
EKVX NSCLC
  GI50: 4.26 µM
  TGI: > 100 µM
UACC-257 melanoma
  GI50: 7.8 µM
  TGI: > 100 µM
PC-3 prostate
  GI50: 3.19 µM
  TGI: > 100 µM
